Source: paper PMC3723327 (Journal of biomolecular screening, 2012)

How the values were obtained:
MEKK2 [1] = target: T1, MEKK2 (Homo sapiens, UniProt Q9Y2U5); experiment: MEKK2 intrinsic ATPase activity assay; type: biochemical; settings: for inhibition at 1 µM: read-out: Inhibition in MEKK2 intrinsic ATPase assay screen (hit criterion)
T1 sequence (Q9Y2U5 1-619): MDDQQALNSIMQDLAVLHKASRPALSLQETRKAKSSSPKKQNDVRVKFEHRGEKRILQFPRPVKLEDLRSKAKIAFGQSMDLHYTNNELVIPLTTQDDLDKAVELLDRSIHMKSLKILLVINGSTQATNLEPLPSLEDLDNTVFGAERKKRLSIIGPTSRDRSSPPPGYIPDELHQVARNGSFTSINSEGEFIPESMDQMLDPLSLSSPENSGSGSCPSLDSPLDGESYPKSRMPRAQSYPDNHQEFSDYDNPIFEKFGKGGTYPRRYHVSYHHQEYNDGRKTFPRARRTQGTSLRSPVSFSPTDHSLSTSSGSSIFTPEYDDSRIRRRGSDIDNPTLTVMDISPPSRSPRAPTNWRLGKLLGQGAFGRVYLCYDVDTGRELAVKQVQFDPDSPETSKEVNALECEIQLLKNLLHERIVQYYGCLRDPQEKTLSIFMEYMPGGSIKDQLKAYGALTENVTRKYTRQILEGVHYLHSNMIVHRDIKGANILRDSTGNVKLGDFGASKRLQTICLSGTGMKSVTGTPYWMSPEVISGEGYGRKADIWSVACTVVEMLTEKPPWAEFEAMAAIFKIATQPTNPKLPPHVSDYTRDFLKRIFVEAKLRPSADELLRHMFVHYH

MEKK2 [2] = target: T1, MEKK2; experiment: MEKK2 transphosphorylation activity assay; type: biochemical; settings: 2 nM MEKK2, 200 nM MKK6, 3 μM ATP
MEKK2 [3] = target: T1, MEKK2; experiment: MEKK2 TR-FRET binding assay; settings: 5 nM MEKK2, 25 nM kinase tracer 236
MEKK2 [4] = settings: read-out: Published MEKK2 Binding Assay IC50; TR-FRET binding assay; ref Invitrogen Lanthascreen Eu Kinase Binding Assay for MEKK2 Validation Packet; cited from earlier work
MEKK2 [5] = target: T2, MEKK2 (Homo sapiens, UniProt Q9Y2U5); experiment: MEKK2 intrinsic ATPase activity assay; type: biochemical; settings: MEKK2 from vendor 3 (catalytic domain only)
T2 sequence (Q9Y2U5 357-619): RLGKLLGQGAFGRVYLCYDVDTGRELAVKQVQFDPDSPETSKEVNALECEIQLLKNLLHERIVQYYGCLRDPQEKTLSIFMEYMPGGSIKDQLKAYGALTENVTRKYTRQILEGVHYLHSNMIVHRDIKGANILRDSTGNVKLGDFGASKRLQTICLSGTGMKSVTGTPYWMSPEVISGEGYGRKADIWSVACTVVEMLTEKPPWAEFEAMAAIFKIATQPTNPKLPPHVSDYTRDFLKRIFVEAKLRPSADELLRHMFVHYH

MEKK2 [6] = experiment: MEKK2 intrinsic ATPase activity assay; type: biochemical, human; settings: high compound concentrations
[7] = 10 nM MEKK2 (vendor 1), 30 μM ATP

Compound | MEKK2 Intrinsic ATPase Assay Hill Slope ± SD (MEKK2 [1]; [7]) | Binding Assay Hill Slope ± SD (MEKK2 [3]) | inhibition at 1 µM (MEKK2 [1]) | Transphosphorylation Assay Hill Slope ± SD (MEKK2 [2]) | IC50 (MEKK2 [4]) | also measured
COc1cc(Nc2c(C#N)cnc3cc(OCCCN4CCN(C)CC4)c(OC)cc23)c(Cl)cc1Cl [Bosutinib] | 1.07 ± 0.09 | 0.93 ± 0.05 | ≥ 50% | 1.03 ± 0.21 | – | –
CN[C@@H]1C[C@H]2O[C@@](C)([C@@H]1OC)n1c3ccccc3c3c4c(c5c6ccccc6n2c5c31)C(=O)NC4 [Staurosporine] | – | – | – | – | – | MEKK2 Intrinsic ATPase Assay Hill Slope ± SD (MEKK2 [1]; 1 nM (instead of 10 nM) MEKK2 enzyme): 0.93 ± 0.13
CCN(CC)CCNC(=O)c1c(C)[nH]c(/C=C2\C(=O)Nc3ccc(F)cc32)c1C [Sunitinib] | 1.06 ± 0.16 | 0.89 ± 0.04 | – | 0.96 ± 0.15 | […] | Difference in IC50 values between ATPase and binding assay (MEKK2 [1]; ATPase assay vs TR-FRET binding assay): 2.4 fold; Intrinsic ATPase assay Hill slope ± SD (MEKK2 [1]; MEKK2 from vendor 2): 1.01 ± 0.02; Intrinsic ATPase assay Hill slope ± SD (MEKK2 [5]): 1.01 ± 0.05; Inhibition of ATPase activity at high compound concentrations (MEKK2 [6]): complete inhibition

The next lines start with results.

MEKK2 Intrinsic ATPase Assay Hill Slope ± SD (MEKK2 [1]; [7]) | Binding Assay Hill Slope ± SD (MEKK2 [3]) | Compound | inhibition at 1 µM (MEKK2 [1]) | Transphosphorylation Assay Hill Slope ± SD (MEKK2 [2]) | IC50 (MEKK2 [4]) | also measured
1.10 ± 0.20 | – | Cc1nc(Nc2ncc(C(=O)Nc3c(C)cccc3Cl)s2)cc(N2CCN(CCO)CC2)n1 [Dasatinib] | – | – | […] | –
1.06 ± 0.07 | 1.05 ± 0.03 | Cc1ccc(Nc2nccc(N(C)c3ccc4c(C)n(C)nc4c3)n2)cc1S(N)(=O)=O [Pazopanib] | ≥ 50% | – | – | –
0.97 ± 0.13 | – | Cc1cc(Nc2cc(N3CCN(C)CC3)nc(Sc3ccc(NC(=O)C4CC4)cc3)n2)[nH]n1 [VX-680] | – | – | 2300 nM | –
